From patent publication US20090311227A1, “Composition” (Danisco A/S, priority 2006, published 2009)

How the values were obtained:
[1] = test system: rats with visceral hypersensitivity induced by the butyrate; assay: CRD test, role of CB2 and MOR receptors in NCFM-induced analgesia (antagonists) in butyrate-treated rats; type: in vivo, rat; details: for effect on NCFM-induced analgesia: butyrate-treated rats receiving NCFM 10^9 CFU/day 15 days, antagonist given peritoneally 30 min before CRD (AM630, naloxone methiodide 2 mg/kg); for effect on pain perception in control rats: control rats with butyrate-induced visceral hypersensitivity, no NCFM, AM630 or naloxone methiodide 2 mg/kg, 30 min before CRD
Method: (§1) Male Sprague-Dawley rats (Charles River, l'Arbresle, France) weighing 175-200 g were used in this study. Rats were maintained in laboratory conditions for 1 week before experiment. The animals were housed 5 per cage with food and water available ad libitum. All studies were performed in accordance with the proposal of the committee for Research and Ethical Issues of the International Association for the Study of Pain (Zimmermann M, Pain. 1983; 16:109-110). Great care was taken, particularly with regard to housing conditions, to avoid or minimize discomfort to the animals.
For each enema, a catheter (2-mm Fogarty catheter) was placed in the colon at 7 cm from the anus, and the animals received 1 ml of 200 mM of sodium butyrate at neutral pH (pH6.9) twice daily for 3 days. Healthy animals received saline.
Nociception in the animals was assessed by measuring the intracolonic pressure required to induce a behavioral response during colorectal distension (CRD) due to the inflation of a balloon introduced in the colon. This response was characterized by an elevation of the hind part of the animal body and clearly visible abdominal contraction corresponding to the severe contractions (Al Chaer, gastro 2000; Tarrerias, pain 2002; Bourdu et al., 2005). Briefly, rats were anesthetized with volatile anaesthesia (2% isoflurane), the balloon (prepared as previously described in Bourdu & al, 2005) was inserted intrarectally in a minimally invasive manner to 7 cm from the anus, and the catheter was taped to the base of the tail. After 5 minutes, rats were placed in the middle of a 40×40-cm Plexiglas box and the catheter was connected to an electronic barostat apparatus (Synectics Visceral Stimulator; Medtronic, Boulogne-Billancourt, France).
Four groups of animals treated with butyrate were used (n=10/group). Two groups were treated once a day during fifteen days by gastric gavage, 10^9 CFU of NCFM strain and the two other groups of butyrate-treated animals received CarboxyMethyl Cellulose (CMC) by the same route and during the same time. NCFM strain was resuspended in 0.5% CMC (CarboxyMethyl Cellulose, Sigma). Butyrate instillations began 7 days after the first gavage for three days. Colonic hypersensitivity was determined 14 days after the after beginning of oral treatment thus 7 days after colonic instillations. […]
(§2) All experiments were performed in a blind manner by the same experimenter using the block method. Results are expressed as mean±SEM of raw data. Results of CRD testing were analysed using one-way analysis of variance (ANOVA) followed of a Bonferroni post-hoc test to compare several treatments. […]

[2] = test system: rats with colonic hypersensitivity induced by butyrate; assay: CRD test, probiotic co-administered with suboptimal morphine in rats with butyrate-induced colonic hypersensitivity; type: in vivo, rat; details: butyrate-treated rats
Method: as §1, with “Pain” for “Pain.”, “animals. […]” for “animals.”
Nociception in the animals was assessed by measuring the intracolonic pressure required to induce a behavioral response during colorectal distension (CRD) due to the inflation of a balloon introduced in the colon. […]
Four groups of animals treated with butyrate were used (n=10/group). […] Colonic hypersensitivity was determined 14 days after the after beginning of oral treatment thus 7 days after colonic instillations. […]
as §2

[3] = test system: rats with colonic hypersensitivity induced by butyrate enemas; details: rat with visceral hypersensitivity induced by butyrate; known from Bourdu et al; cited from earlier work

SMILES	effect on NCFM-induced analgesia [1]	effect on pain perception in control rats [1]	pain threshold ([2]; morphine 0.1 mg/kg subcutaneously alone, 30 min before CRD, mean±SEM)	difference on pain threshold vs rats not receiving morphine ([2]; suboptimal dosage of morphine 0.1 mg/kg)	effect on colonic hypersensitivity in CRD test [3]
COc1ccc(C(=O)c2c(C)n(CCN3CCOCC3)c3cc(I)ccc23)cc1 [AM630]	significantly inhibited	no effect	–	–	–
C=CC[N+]1(C)CC[C@]23c4c5ccc(O)c4O[C@H]2C(=O)CC[C@@]3(O)[C@H]1C5 (stereo partly shown) [NLX, naloxone methiodide]	not	no effect	–	–	–
CN1CC[C@]23c4c5ccc(O)c4O[C@H]2[C@@H](O)C=C[C@H]3[C@H]1C5 [morphine]	–	–	41.5±2.4	No difference	dose-dependent decrease
